According to US12275731B2, “Azaindole inhibitors of wild-type and mutant forms of LRRK2” (DANA-FARBER CANCER INSTITUTE, INC., priority 2018, dated 2025):

Legend:
Test in all cases: KinomeScan profiling
Format in all cases: binding
[1] = target: VPS34 (Homo sapiens, UniProt Q8NEB9); details: VPS34, 1 μM; read-out: % control
Outline: (§1)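 At 1 μM in DMSO, compounds are run through a broad 468-member kinase panel. The luminescent read-out is normalised so that vehicle gives 100% and a positive control gives 0%; any kinase falling below 35% is treated as a target.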

[2] = target: T1, TYRO3 (Homo sapiens, UniProt Q06418); details: TYRO3, 1 μM; read-out: % control
T1 sequence (Q06418 41-890): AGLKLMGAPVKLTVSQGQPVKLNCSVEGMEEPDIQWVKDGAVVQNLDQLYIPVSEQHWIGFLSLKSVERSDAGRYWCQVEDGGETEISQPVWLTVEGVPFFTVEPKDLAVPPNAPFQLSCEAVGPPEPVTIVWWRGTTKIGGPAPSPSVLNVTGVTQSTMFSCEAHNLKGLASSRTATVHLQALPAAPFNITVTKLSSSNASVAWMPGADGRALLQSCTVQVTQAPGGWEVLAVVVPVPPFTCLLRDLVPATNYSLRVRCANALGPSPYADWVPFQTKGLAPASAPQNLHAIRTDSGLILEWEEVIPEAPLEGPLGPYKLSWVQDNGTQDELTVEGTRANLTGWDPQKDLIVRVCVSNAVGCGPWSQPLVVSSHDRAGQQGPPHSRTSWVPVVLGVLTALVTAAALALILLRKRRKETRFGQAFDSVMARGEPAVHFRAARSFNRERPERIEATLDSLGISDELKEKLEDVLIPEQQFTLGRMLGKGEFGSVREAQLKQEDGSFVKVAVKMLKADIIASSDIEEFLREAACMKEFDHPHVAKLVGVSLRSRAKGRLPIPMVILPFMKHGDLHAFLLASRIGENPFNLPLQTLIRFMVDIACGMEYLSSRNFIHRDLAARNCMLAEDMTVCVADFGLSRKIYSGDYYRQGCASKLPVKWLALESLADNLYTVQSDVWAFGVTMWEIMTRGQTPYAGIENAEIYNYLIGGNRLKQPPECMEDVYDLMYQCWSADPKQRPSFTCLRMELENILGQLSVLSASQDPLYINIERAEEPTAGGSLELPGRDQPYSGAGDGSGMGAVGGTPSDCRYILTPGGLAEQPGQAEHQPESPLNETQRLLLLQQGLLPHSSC
Outline: as §1

[3] = target: T2, FLT3(D835Y) (Homo sapiens, UniProt P36888, D835Y); details: read-out: % control
T2 sequence (P36888 27-993 D835Y): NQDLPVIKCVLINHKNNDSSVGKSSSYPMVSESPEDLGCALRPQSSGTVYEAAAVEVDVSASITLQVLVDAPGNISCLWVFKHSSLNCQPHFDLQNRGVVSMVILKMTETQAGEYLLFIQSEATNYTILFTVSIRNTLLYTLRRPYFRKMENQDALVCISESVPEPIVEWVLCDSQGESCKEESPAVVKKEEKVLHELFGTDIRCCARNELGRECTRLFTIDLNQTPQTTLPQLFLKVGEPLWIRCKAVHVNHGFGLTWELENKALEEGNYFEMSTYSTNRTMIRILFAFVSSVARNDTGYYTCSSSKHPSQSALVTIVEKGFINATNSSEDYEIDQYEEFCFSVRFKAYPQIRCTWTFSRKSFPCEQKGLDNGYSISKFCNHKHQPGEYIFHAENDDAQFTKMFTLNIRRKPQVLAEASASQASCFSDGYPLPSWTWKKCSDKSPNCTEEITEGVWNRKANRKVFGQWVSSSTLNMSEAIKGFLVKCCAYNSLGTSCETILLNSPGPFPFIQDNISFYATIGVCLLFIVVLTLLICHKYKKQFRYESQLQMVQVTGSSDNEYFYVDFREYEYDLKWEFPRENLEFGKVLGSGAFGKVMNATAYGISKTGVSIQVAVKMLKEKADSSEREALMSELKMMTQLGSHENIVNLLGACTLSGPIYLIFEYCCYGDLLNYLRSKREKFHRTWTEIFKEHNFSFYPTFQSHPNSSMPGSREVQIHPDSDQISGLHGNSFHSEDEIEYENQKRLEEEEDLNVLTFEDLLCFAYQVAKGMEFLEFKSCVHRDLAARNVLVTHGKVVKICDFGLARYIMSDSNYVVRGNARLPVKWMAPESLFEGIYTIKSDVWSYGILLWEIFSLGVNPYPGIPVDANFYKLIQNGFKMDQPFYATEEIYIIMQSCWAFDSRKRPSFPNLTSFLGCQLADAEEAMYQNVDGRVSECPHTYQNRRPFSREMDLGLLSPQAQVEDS
Outline: as §1

[4] = target: PLK2 (Homo sapiens, UniProt Q9NYY3); details: PLK2, 1 μM; read-out: % control
Chain of PLK2 (Q9NYY3 whole entry): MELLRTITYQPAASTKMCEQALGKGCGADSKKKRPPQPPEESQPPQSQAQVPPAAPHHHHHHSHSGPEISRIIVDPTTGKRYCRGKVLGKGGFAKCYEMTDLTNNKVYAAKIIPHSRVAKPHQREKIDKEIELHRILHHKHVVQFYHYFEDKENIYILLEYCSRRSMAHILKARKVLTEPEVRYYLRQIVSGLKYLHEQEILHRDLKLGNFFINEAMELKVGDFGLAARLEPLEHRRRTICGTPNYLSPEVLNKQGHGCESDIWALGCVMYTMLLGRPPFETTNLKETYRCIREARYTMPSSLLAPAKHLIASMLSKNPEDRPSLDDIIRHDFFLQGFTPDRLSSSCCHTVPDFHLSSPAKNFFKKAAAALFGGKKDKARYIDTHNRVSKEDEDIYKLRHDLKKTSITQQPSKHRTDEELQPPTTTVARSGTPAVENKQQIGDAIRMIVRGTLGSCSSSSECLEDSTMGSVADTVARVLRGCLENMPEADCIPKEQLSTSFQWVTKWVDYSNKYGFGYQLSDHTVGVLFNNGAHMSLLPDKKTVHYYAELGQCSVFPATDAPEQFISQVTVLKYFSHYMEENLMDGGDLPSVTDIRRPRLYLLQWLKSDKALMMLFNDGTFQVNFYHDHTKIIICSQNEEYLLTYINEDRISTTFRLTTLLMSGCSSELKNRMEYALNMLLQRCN
Outline: as §1

[5] = target: T3, TEC (Homo sapiens, UniProt P42680); details: read-out: % control
T3 sequence (P42680 1-631): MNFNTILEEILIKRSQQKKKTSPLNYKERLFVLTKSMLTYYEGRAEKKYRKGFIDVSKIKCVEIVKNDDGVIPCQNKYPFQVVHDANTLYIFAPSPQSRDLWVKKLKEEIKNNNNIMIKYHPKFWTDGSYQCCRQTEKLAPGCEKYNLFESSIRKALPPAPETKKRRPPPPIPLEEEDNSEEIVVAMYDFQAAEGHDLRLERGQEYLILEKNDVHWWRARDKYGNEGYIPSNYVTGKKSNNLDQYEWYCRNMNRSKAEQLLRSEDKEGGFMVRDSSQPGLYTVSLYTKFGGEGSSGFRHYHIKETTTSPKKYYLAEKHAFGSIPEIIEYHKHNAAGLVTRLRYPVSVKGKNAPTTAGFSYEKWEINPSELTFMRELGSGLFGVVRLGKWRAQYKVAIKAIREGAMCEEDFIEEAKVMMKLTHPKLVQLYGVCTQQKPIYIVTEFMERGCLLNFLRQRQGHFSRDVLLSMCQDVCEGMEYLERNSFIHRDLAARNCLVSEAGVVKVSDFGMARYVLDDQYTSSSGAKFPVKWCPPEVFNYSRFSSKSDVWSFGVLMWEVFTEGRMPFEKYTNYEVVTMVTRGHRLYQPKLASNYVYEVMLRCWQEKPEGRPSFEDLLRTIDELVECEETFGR
Outline: as §1

[6] = target: CDK4-cyclinD1 (Homo sapiens, UniProt P11802); details: CDK4-cyclinD1, 1 μM; read-out: % control
Chain of CDK4-cyclinD1 (P11802 whole entry): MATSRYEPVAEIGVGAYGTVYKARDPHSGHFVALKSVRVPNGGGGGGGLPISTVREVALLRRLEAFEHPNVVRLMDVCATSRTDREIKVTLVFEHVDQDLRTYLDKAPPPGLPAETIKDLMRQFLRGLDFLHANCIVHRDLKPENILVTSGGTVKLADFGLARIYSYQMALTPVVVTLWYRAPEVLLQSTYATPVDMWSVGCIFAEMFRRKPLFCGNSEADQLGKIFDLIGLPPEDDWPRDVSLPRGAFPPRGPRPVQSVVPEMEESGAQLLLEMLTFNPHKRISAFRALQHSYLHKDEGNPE
Chain of CDK4-cyclinD1 (P24385 whole entry partner): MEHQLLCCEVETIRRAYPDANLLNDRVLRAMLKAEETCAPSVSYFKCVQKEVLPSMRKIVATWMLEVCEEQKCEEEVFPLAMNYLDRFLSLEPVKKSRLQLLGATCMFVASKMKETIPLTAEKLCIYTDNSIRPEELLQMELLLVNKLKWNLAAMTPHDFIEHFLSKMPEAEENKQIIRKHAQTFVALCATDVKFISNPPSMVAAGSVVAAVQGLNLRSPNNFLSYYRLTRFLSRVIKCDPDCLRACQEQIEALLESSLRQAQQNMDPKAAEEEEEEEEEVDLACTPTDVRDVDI
Outline: as §1

Chain of VPS34 (Q8NEB9 whole entry): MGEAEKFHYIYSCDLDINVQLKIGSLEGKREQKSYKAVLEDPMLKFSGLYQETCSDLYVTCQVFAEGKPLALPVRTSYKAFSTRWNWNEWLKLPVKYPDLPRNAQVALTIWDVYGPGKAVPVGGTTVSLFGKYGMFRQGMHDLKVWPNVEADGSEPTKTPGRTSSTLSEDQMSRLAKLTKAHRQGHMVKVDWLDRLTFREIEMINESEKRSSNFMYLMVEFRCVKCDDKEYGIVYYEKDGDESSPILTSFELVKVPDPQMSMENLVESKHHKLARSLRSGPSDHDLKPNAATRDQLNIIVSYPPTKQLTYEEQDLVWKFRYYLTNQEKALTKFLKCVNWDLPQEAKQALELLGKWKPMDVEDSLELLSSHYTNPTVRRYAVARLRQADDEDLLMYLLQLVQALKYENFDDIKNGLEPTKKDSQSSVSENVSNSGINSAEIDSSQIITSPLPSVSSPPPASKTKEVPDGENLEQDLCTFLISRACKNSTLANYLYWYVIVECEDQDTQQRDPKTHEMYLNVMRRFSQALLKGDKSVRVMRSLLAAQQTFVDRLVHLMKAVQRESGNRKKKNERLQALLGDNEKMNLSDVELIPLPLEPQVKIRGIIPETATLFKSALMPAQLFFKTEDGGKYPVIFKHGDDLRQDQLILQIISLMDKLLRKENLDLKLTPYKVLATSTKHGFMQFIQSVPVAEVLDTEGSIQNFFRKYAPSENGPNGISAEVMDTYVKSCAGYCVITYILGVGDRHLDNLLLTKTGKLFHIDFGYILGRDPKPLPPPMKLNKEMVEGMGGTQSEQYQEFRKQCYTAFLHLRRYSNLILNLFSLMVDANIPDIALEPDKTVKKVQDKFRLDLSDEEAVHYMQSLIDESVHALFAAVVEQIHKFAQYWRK

| Structure (SMILES) | remaining binding at 1 µM [1] | remaining binding at 1 µM [2] | remaining binding at 1 µM [3] | remaining binding at 1 µM [4] | remaining binding at 1 µM [5] | remaining binding at 1 µM [6] |
| --- | --- | --- | --- | --- | --- | --- |
| CNc1c(-c2cnn([C@H]3CCN(C(C)=O)C[C@@H]3F)c2)cnc2[nH]cc(Cl)c12 [Compound 77, 1-((3S,4S)-4-(4-(3-chloro-4-(methylamino)-1H-pyrrolo[2,3-b]pyridin-5-yl)-1H-pyrazol-1-yl)-3-fluoropiperidin-1-yl)ethan-1-one] | 35% | 100% | 9.7% | 85% | 100% | 74% |
| O=C(c1ccc(-c2cnc3[nH]cc(Cl)c3c2NC2CCCC2)cc1)N1CCC(N2CCOCC2)CC1 [Compound 101, (4-(3-chloro-4-(cyclopentylamino)-1H-pyrrolo[2,3-b]pyridin-5-yl)phenyl)(4-morpholinopiperidin-1-yl)methanone] | 100% | 56% | 33% | 100% | 93% | 100% |
| CNc1c(-c2ccc(C(=O)N3CCC(N4CCOCC4)CC3)cc2)cnc2[nH]cc(Cl)c12 [Compound 96, (4-(3-chloro-4-(methylamino)-1H-pyrrolo[2,3-b]pyridin-5-yl)phenyl)(4-morpholinopiperidin-1-yl)methanone] | 51% | 100% | 11% | 100% | 100% | 73% |
